Patent publication US20260055137A1, “NOVEL ISOLATED PEPTIDES, PROTEIN HYDROLYSATE COMPRISING THE SAID ISOLATED PEPTIDES AND USE THEREOF” (BETAGRO PUBLIC COMPANY LIMITED, priority 2022, published 2026)
No end group written: not given here.

Legend:
sensory panel [1] = experiment: Taste threshold in water (intrinsic taste), duo-trio tests; format: in vivo
Procedure: (§1) The threshold concentrations of 21 newly identified peptides were determined in water for the intrinsic taste and in model broth (pH 6.0 adjusted with 1% formic acid) for the taste modulating properties, respectively (Table 4). The peptides were dissolved, serially diluted 1:2, and presented to the panel using duo-trio-tests with ascending concentrations as reported in literatures. The geometric mean of the last and the second to last concentration was calculated and taken as the individual recognition threshold. The threshold value of the sensory panel was approximated by averaging the threshold values of the individuals in two independent sessions. [formula] • wherein • Cp: the threshold of a panelist, • C1: the first correctly evaluated concentration, • C0: the first misjudged concentration [formula] • wherein • Cs: the thresholds of total panelists, • Cp: the threshold of a panelist, • n: the number of panel members

sensory panel [2] = experiment: Taste threshold in model broth (taste modulating properties), duo-trio tests; format: in vivo; settings: for Taste properties in model broth / Threshold in model broth: model broth pH 6.0; for Threshold in model broth: taste modulating threshold; for Taste threshold in model broth: as listed in Table 6
Procedure: as §1

[3] = Quantification of peptides in the hydrolyzed chicken plasma sample and DoT factors; settings: ratio of concentration in hydrolyzed chicken plasma sample to taste threshold in model broth
Excerpt: To identify the peptides which play a key role on taste-active and taste-modulating effects, not only the 21 newly identified peptides, but also literature-known basic tastants (e.g., amino acids, γ-glutamyl peptides, cations, anions, etc.) were quantified in the hydrolyzed chicken plasma sample. Focusing on the 21 newly identified peptides, the taste quality, taste thresholds, dose over threshold (DOT) factors and concentrations of the peptides in the hydrolyzed chicken plasma sample are shown in Table 6. The taste thresholds determined for the newly identified peptides (those are listed in Table 6) were used for the calculation of DoT factors which are defined as the ratio of the concentration of a substance and its corresponding taste threshold concentration. The DoT factors enable a first estimation of the taste contribution as substances with DoT factors≥1 most likely contribute directly to the perceived taste.

sensory panel [4] = experiment: Taste threshold in model broth (taste modulating properties), duo-trio tests; format: in vivo; settings: as listed in Table 7
Panelists = experiment: Salt isointensity test; format: in vivo; settings: for Average perceived salt isointensity / Salt-taste enhancing or reducing property: peptide 1 mmol/L in model broth containing 50 mM NaCl; for Enhancement or reduction: versus 50 mM NaCl, isointensity above 50 = enhancement, below 50 = reduction, peptide 1 mmol/L
Procedure: To investigate the effects of peptides on the perceived saltiness, a salt isointensity test was performed according to literatures. In salt-isointensity test, the peptides (1 mmol/L) were spiked into model broth containing 50 mM NaCl and the panelists were asked to evaluate the intensity of saltiness compared with the following NaCl concentrations of 30, 40, 50, 60, 70, and 80 mmol/L. The results are shown in Table 5.

sensory panel [5] = experiment: Taste threshold in commercial chicken soup, duo-trio tests; format: in vivo; settings: for Taste threshold in food products, Commercial chicken soup: 3 g powder in 150 mL, spiked at 2 mmol/L, diluted
Excerpt: To investigate the taste-modulating performance of the identified peptides in food products, the commercial chicken soup and model broth were used for further sensory experiments. According to the sensory experiment, the peptides such as Pro-Val-Leu-Lys (SEQ ID NO: 1), Pro-Leu-Pro-Arg (SEQ ID NO: 2), Glu-Ala-Glu-Phe-Asp (SEQ ID NO: 3), Pro-Gln-Pro-Glu-Arg (SEQ ID NO: 5), and Glu-Asp-Ala-Pro-Val-Leu-His (SEQ ID NO: 7) are spiked into the commercial chicken soup (Netto Marken-Discount AG&CO.KG, Maxhütte-Haidhof) and the model broth. According to the experiments, 3 g of the commercial chicken soup powder was dissolved in 150 mL boiling water. The peptides (each 2 mmol/L) were spiked into 20 mL solution of this solution. Afterwards, the taste threshold was determined by means of duo-trio-tests as previously described (using chicken soup as reference).

Substance | Threshold in water (sensory panel [1]) | Taste properties in model broth (sensory panel [2]) | Threshold in model broth (sensory panel [2]) [µmol/L] | DoT factor [3] | Taste properties in water (sensory panel [1]) | Taste threshold in model broth (sensory panel [2]) [µmol/L] | Taste threshold in food products, Model broth (sensory panel [4]) [µmol/L] | Average perceived salt isointensity (Panelists) [mmol/L NaCl] | Salt-taste enhancing or reducing property (Panelists) | Enhancement or reduction (Panelists) [%] | Not differentiated up to max concentration tested in commercial chicken soup (sensory panel [5]; commercial chicken soup) [mmol/L] | Taste threshold in food products, Commercial chicken soup (sensory panel [5]; commercial chicken soup) | Threshold in model broth, times lower than in commercial chicken soup (sensory panel [5]; chicken soup versus model broth) [times]
Arg-Asn-Gly-Pro-Arg (RNGPR; Poultry) [SEQ ID NO: 17] | tasteless | kokumi, umami | 101 | 0.0 |  |  |  |  |  |  |  |  | 
EDAPVLH [SEQ ID NO: 7] | 565 µmol/L |  |  | 0.1 | astringent | 236 | 236 |  |  |  |  |  | 
EDEVLATP [SEQ ID NO: 21] | 894 µmol/L |  | 96 |  |  |  |  | 59.8 | salt-tase enhancing | 20 |  |  | 
EETPSHD [SEQ ID NO: 9] | 283 µmol/L | umami, kokumi | 36 | 0.1 |  |  |  |  |  |  |  |  | 
EEVEEEEVE [SEQ ID NO: 10] | 233 µmol/L | umami, kokumi | 34 | 0.1 |  |  |  |  |  |  |  |  | 
EFDARPT [SEQ ID NO: 8] | tasteless | kokumi, salty | 351 | 0.0 |  |  |  | 66.7 | salt-tase enhancing | 33 |  |  | 
EFDEKAPD [SEQ ID NO: 11] | 865 µmol/L |  | 67 |  | bitter |  |  | 62.1 | salt-tase enhancing | 24 |  |  | 
EFDEKPAD [SEQ ID NO: 6] | tasteless |  | 94 |  |  |  |  | 60.0 | salt-tase enhancing | 20 |  |  | 
EGDSAAI [SEQ ID NO: 19] | tasteless | umami, kokumi | 212 | 0.2 |  |  |  |  |  |  |  |  | 
ENAPDQK [SEQ ID NO: 12] | 907 µmol/L | kokumi, umami | 137 | 0.2 |  |  |  |  |  |  |  |  | 
EPEGDVHQ [SEQ ID NO: 20] | 243 µmol/L | umami, kokumi | 61 |  |  |  |  |  |  |  |  |  | 
Glu-Ala-Glu-Phe-Asp (EAEFD; Poultry) [SEQ ID NO: 3] | 116 µmol/L |  |  |  |  | 95 | 95 | 43.0 | salt-tase reducing | 14 |  |  | 
Glu-Asp-Met-Ala-Pro (EDMAP; Poultry) [SEQ ID NO: 13] | 1024 µmol/L | kokumi, salty | 151 | 0.2 |  |  |  | 43.8 |  | 13 |  |  | 
Pro-Gln-Pro-Glu-Arg (PQPER; Poultry) [SEQ ID NO: 5] | 705 µmol/L |  | 133 | 0.0 |  |  | 133 |  |  |  | > 2 | No effect | 
Pro-Glu-Arg-Asn-Glu (PERNE; Poultry) [SEQ ID NO: 4] | 100 µmol/L |  | 231 | 0.1 |  |  |  |  |  |  |  |  | 
Pro-Ile-Asn-Asp-Asn (PINDN; Poultry) [SEQ ID NO: 14] | tasteless |  | 26 |  |  |  |  | 63.6 | salt-tase enhancing | 27 |  |  | 
Pro-Leu-Pro-Arg (PLPR; Poultry) [SEQ ID NO: 2] | 296 µmol/L | umami, kokumi | 112 | 0.0 | astringent |  | 112 |  |  |  |  | 418 µmol/L | 4
Pro-Thr-Asp-Leu (PTDL; Poultry) [SEQ ID NO: 15] | tasteless |  | 97 |  |  |  |  |  |  |  |  |  | 
Pro-Val-Ala-Glu (PVAE; Poultry) [SEQ ID NO: 16] | 688 µmol/L | kokumi, salty | 243 | 0.7 |  |  |  | 62.0 | salt-tase enhancing | 24 |  |  | 
Pro-Val-Leu-Lys (PVLK; Poultry) [SEQ ID NO: 1] | tasteless |  | 296 | 0.0 |  |  | 296 | 42.9 | salt-tase reducing | 14 |  |  | 
RAEDTATYY [SEQ ID NO: 18] | 610 µmol/L | kokumi, umami | 247 | 0.0 |  |  |  |  |  |  |  |  | 
